Results: patent publication US9512139B2, “Conformationally constrained, fully synthetic macrocyclic compounds” (POLYPHOR AG, priority 2009, dated 2016)

Legend:
[1] = in vitro; format: in vitro ADME, human; details: human, plasma, 10 µM; for Plasma Stability 240 min hum [% remain.]: 4 h
Procedure: (§5) Example compounds were dissolved in DMSO/H2O 90:10 to a final concentration of 10 mM for plasma stability determination and metabolic stability determination.
(§6) Human plasma (3-5 donors, Blutspendedienst SRK, Basel) and CD-1 mouse plasma (mixed gender pool >50 animals, Innovative Research, CA, USA) are both sodium citrate stabilized. The assay is performed in triplicates at 10 μM compound concentration and 37° C. Samples are taken at 0, 15, 60, and 240 minutes and stopped by precipitation with 2 volumes of acetonitrile. The supernatant is collected, evaporated and reconstituted in a 5% acetonitrile solution to be analyzed by HPLC/MS/MS. The resulting peak area counts are expressed in percent of the 0 value and used to determine the endpoint stability in % and the half life in minutes. In order to monitor assay integrity the degradation of propantheline is assayed with every experimental set.

[2] = in vitro; format: in vitro ADME, mouse; details: CD-1, mouse, plasma; for Plasma Stability T½ [min] mouse / Plasma Stability 240 min mouse [% remain.]: both, 10 µM; for Plasma Stability 240 min mouse [% remain.]: 4 h
Procedure: as §5, §6

[3] = Metabolic stability assay, human microsomes; format: in vitro ADME; details: human, microsomes; for Metabolic Stability T½ [min] hum / Metabolic Stability 60 min hum [% remain.]: both, 10 µM; for Metabolic Stability 60 min hum [% remain.]: 1 h; for half-life at 10 µM: both sexes
Procedure: (§1) 4. Plasma and Metabolic Stability Assays
(§2) The assays were conducted according to literature precedents (F. P. Guengerich, Analysis and Characterization of Enzymes; in: Principles and Methods of Toxicology; A. W. Hayes (Ed.) Raven Press: New York, 1989, 777-813; R. Singh et al., In vitro metabolism of a potent HIV-protease inhibitor (141W94) using rat, monkey and human liver S9, Rapid Commun. Mass Spectrom. 1996, 10, 1019-1026).
(§3) Metabolic Stability Assay
(§4) Microsomes from a human 50 donor mixed gender pool and 1:1 mixtures of microsomes from CD-1 mouse single-gender pools are purchased from Celsis (Belgium). The enzymatic reaction is performed in a buffer containing an NADPH regeneration system and microsomes with the following end concentrations: 100 mM potassium phosphate buffer (all from Sigma), 1 mg/mL glucose-6-phosphate, 1 mg/mL β-nicotinamide adenine dinucleotide phosphate (NADP), 0.65 mg/mL magnesium chloride, 0.8 units/mL of glucose-6-phosphate dehydrogenase (prediluted with 5 mM citrate buffer), 10 μM compound and 1 mg/ml microsomal protein. Compounds are incubated at 37° C. in duplicates and samples are taken after 0, 20 and 60 minutes. After acetonitrile precipitation (2 volumes) and HPLC/MS/MS analysis metabolic turnover is expressed in % of the initial 0 minutes value and half life T½ (min) is calculated. Verapamil for human and propranolol for mouse are used as reference and are assayed with every experimental set.

[4] = Metabolic stability assay, CD-1 mouse microsomes; format: in vitro ADME; details: CD-1, mouse, microsomes; for Metabolic Stability T½ [min] mouse / Metabolic Stability 60 min mouse [% remain.]: both, 10 µM; for Metabolic Stability 60 min mouse [% remain.]: 1 h; for half-life at 10 µM: both sexes
Procedure: as §1, §2, §3, §4
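Throughout, for Plasma Stability 240 min mouse [% remain.]: sodium citrate stabilized mouse plasma, parent compound quantified by HPLC/MS/MS relative to its peak area at time zero, run in triplicate.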
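Throughout, for Plasma Stability T½ [min] mouse: sodium citrate stabilized mouse plasma, parent compound quantified by HPLC/MS/MS relative to its peak area at time zero, run in triplicate.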

SMILES	Plasma Stability T½ [min] hum [1] [min]	Plasma Stability 240 min hum [% remain.] [1] [% remain.]	Plasma Stability T½ [min] mouse [2] [min]	Plasma Stability 240 min mouse [% remain.] [2] [% remain.]	Metabolic Stability T½ [min] hum [3] [min]	Metabolic Stability 60 min hum [% remain.] [3] [% remain.]	Metabolic Stability T½ [min] mouse [4] [min]	Metabolic Stability 60 min mouse [% remain.] [4] [% remain.]	half-life at 10 µM [3] [h]	half-life at 10 µM [4] [h]	half-life at 10 µM ([2]; both sexes) [h]
CC(=O)N1CCN([C@H]2CCCN(C)C(=O)c3cccc(c3)OC[C@@H]3C[C@H](O)CN3C2=O)CC1 [Ex. 582, (4S,6S,10S)-10-(4-acetylpiperazino)-6-hydroxy-14-methyl-2-oxa-8,14-diazatricyclo[14.3.1.0^4,8]icosa-1(20),16,18-triene-9,15-dione]	> 240	100	> 240	96	> 60	100	> 60	98			
CN1CCC[C@H](NC(=O)CC(C)(C)C)C(=O)N2C[C@@H](N)C[C@H]2COc2cccc(c2)C1=O [Ex. 533, N-[(4S,6S,10S)-6-amino-14-methyl-9,15-dioxo-2-oxa-8,14-diazatricyclo[14.3.1.0^4,8]icosa-1(20),16,18-trien-10-yl]-3,3-dimethylbutanamide]	> 240	95	> 240	100	> 60	59	> 60	93			
CCCCC(=O)N[C@@H]1C[C@H]2COc3ccc(F)cc3C(=O)N(C)[C@H](C(=O)N(C)CCN(C)C)CCC(=O)N(C)CC(=O)N2C1 [Ex. 78, (2R,11S,19aS)-N-[2-(dimethylamino)ethyl]-15-fluoro-N,7,12-trimethyl-5,8,13-trioxo-2-(pentanoylamino)-2,3,6,7,8,9,10,11,12,13,19, 19a-dodecahydro-1H,5H-pyrrolo[2,1-c][1,4,7,12]benzoxatriazacyclopentadecine-11-carboxamide]	> 240	65	> 240	100	> 60	78	> 60	100			
CN(C)CCNC(=O)[C@H]1CCC(=O)N(C)CC(=O)N2CCN(C(=O)Cc3ccc4ccccc4c3)C[C@@H]2COc2ccc(F)cc2C(=O)N1C [Ex. 138, (12R,20aR)-N-[2-(dimethylamino)ethyl]-16-fluoro-8,13-dimethyl-2-[2-(2-naphthyl)acetyl]-6,9,14-trioxo-1,2,3,4,7,8,9,10,11,12,13,14,20,20a-tetradecahydro-6H-pyrazino[2,1-c][1,4,7,12]benzoxatriazacyclopentadecine-12-carboxamide]	> 240	89	> 240	78	> 60	62	> 60	99			
CNC(=O)[C@H]1CCC(=O)N(C)CC(=O)N2C[C@@H](NC(=O)Cc3ccc4ccccc4c3)C[C@H]2COc2ccc(F)cc2C(=O)N1C [Ex. 93, (2S,11R,19aS)-15-fluoro-N,7,12-trimethyl-2-{[2-(2-naphthyl)acetyl]amino}-5,8,13-trioxo-2,3,6,7,8,9,10,11,12, 13,19,19a-dodecahydro-1H,5H-pyrrolo[2,1-c][1,4,7,12] benzoxatriazacyclopentadecine-11-carboxamide]	> 240	100	> 240	100		1		15	0.4	0.483	
CN1CCC[C@H](N)C(=O)N2C[C@@H](OCc3ccc(-c4cncnc4)cc3)C[C@H]2COc2cccc(c2)C1=O [Ex. 577, (4S,6S,10S)-10-amino-14-methyl-6-{[4-(5-pyrimidinyl)benzyl]oxy}-2-oxa-8,14-diazatricyclo[14.3.1.0^4,8]icosa-1(20),16,18-triene-9,15-dione]	> 240	87	> 240	101		41		25	0.783	0.45	
CN1CC(=O)N2C[C@H](NC(=O)CN3CCCC3)C[C@H]2COc2ccc(cc2)C(=O)N(C)[C@H](C(=O)NCc2ccncc2)CCC1=O [Ex. 266, (4S,6R,15S)-11,16-dimethyl-9,12,17-trioxo-N-(4-pyridinylmethyl)-6-{[2-(1-pyrrolidinyl)acetyl]amino}-2-oxa-8,11,16-triazatricyclo[16.2.2.0^4,8]docosa-1(20),18,21-triene-15-carboxamide]	> 240	92	> 240	74	> 60	100	> 60	98			
CC(C)CN1C[C@H]2C[C@H]1COc1ccc(F)cc1C(=O)N(C)CCC[C@H](NC(=O)Cc1ccccc1)C(=O)N2 [Ex. 407, N-[(1S,15S,18R)-7-fluoro-20-isobutyl-11-methyl-10,16-dioxo-3-oxa-11,17,20-triazatricyclo[16.2.1.0^4,9]henicosa-4,6,8-trien-15-yl]-2-phenylacetamide]	> 240	80	> 240	98		47	> 60	84	0.85		
CC(=O)N[C@H]1CN(C)C(=O)c2cccc(c2)OC[C@@H]2C[C@H](NC(=O)CN(C)C)CN2C(=O)CN(C)C1=O [Ex. 208, N-[(4S,6S,13S)-13-(acetylamino)-11,15-dimethyl-9,12,16-trioxo-2-oxa-8,11,15-triazatricyclo[15.3.1.0^4,8]henicosa-1(21),17,19-trien-6-yl]-2-(dimethylamino)acetamide]	> 240	98	> 240	90	> 60	84	> 60	100			
CN1CC(=O)N2C[C@@H](N)C[C@H]2COc2ccc(F)cc2C(=O)N(C)[C@@H](C(=O)NCc2ccc3ccccc3c2)CCC1=O [Ex. 91, (2S,11R,19aS)-2-amino-15-fluoro-7,12-dimethyl-N-(2-naphthylmethyl)-5,8,13-trioxo-2,3,6,7,8,9,10,11,12,13,19,19a-dodecahydro-1H,5H-pyrrolo[2,1-c][1,4,7,12] benzoxatriazacyclopentadecine-11-carboxamide]	> 240	96	> 240	88	> 60	91	> 60	95			
CN1CC(=O)N2C[C@H](NC(=O)Cc3ccc4ccccc4c3)C[C@H]2COc2ccc(cc2)C(=O)N(C)[C@H](C(=O)N2CCCC2)CCC1=O [Ex. 264, N-[(4S,6R,15S)-11,16-dimethyl-9,12,17-trioxo-15-(1-pyrrolidinylcarbonyl)-2-oxa-8,11,16-triazatricyclo[16.2.2.0^4,8]docosa-1(20),18,21-trien-6-yl]-2-(2-naphthyl)acetamide]	> 240	94	> 240	88				32		0.7	
CCCCC(=O)N[C@H]1C[C@H]2COc3cccc(c3)C(=O)N(C)CC[C@H](N)C(=O)N2C1 [Ex. 167, N-[(4S,6S,10S)-10-amino-13-methyl-9,14-dioxo-2-oxa-8,13-diazatricyclo[13.3.1.0^4,8]nonadeca-1(19),15,17-trien-6-yl] pentanamide]				17	> 60	58	> 60	65			0.583
